Source: EP2604265A1, “P2x7 antagonists as frontline or adjunctive treatment against status epilepticus” (Royal College of Surgeons in Ireland (RCSI), priority 2011, dated 2013)

Experiments:
[1] = tested on: Adult male C57BL/6 mice; assay: Refractory SE model in mice, drugs given 60 min post-KA, EEG during the next hour; assay type: in vivo
Protocol: Adult male C57BL/6 mice (20-25 g) were obtained from Harlan UK (Blackthorn, UK). Mice were first anesthetized using isoflurane (3-5%) and maintained normothermic by means of a feedback-controlled heat blanket (Harvard Apparatus Ltd, Kent, UK). Mice were next placed in a stereotaxic frame and three partial craniectomies performed to affix cortical skull-mounted EEG electrodes (Bilaney Consultants Ltd, Sevenoaks, UK). EEG was recorded using a Grass Comet XL digital EEG (Medivent Ltd, Lucan, Ireland). A guide cannula was affixed (coordinates from Bregma: AP = 0.94; L = 2.85 mm) and the assembly fixed in place with dental cement. Anesthesia was then discontinued and freely moving mice were placed inside a clear perspex recording chamber. EEG recordings were commenced and after establishing baseline EEG for a few minutes, an injection cannula was lowered through the guide cannula for injection of kainic acid (KA) (Ocean Produce International, Nova Scotia, Canada) into the basolateral amygdala nucleus (0.3 µg in 0.2 µl phosphate-buffered saline). Non-seizure control mice underwent the same surgical procedure but received 0.2 µl intra-amygdala vehicle. Mice were killed at different time-points (1, 4, 8 or 24 h) later and perfused with saline to remove intravascular blood components. Brains were either flash-frozen whole in 2-methylbutane at […] or perfused with 4% PFA for histopathology, or dissected on ice to obtain whole hippocampus or microdissected to obtain the different hippocampal subfields (CA1, DG and CA3).
(§1) Digitized EEG recordings were analyzed off-line using manual assessment and automated software. The occurrence of high amplitude high frequency spiking during seizures is synonymous with injury-causing electrographic seizures during SE (also termed type IV electrographic seizures) (Lowenstein et al., 1991; Henshall et al., 2000). The duration of high-frequency (>5 Hz) high-amplitude (>2× baseline) polyspike discharges of ≥5 s duration (HAHFDs) was counted by a reviewer blind to treatment. Further EEG analysis was performed by uploading EEG into Labchart7 software (ADInstruments) to calculate the power spectral density (total power, a measure of the input signal's power (amplitude) over frequency) EEG spectrogram (spectral power against frequency and time).
A-438079 (3-[[5-(2,3-Dichlorophenyl)-1H-tetrazol-1-yl]methyl]pyridine hydrochloride) (50 µM) was from Tocris Biosciences (Bristol, U.K.) and the P2X7R specific antibody was from Alomone Labs (APR-008, Alomone Labs, Ltd, Jerusalem, Israel) and injected at 0.7 mg/ml. Lorazepam (Ativan®, Wyeth, Taplow, U.K.) (6 mg/kg) was administered intraperitoneally (i.p.) at 40 or 60 min after KA.
To model refractory SE, seizures were allowed to continue beyond the normal time when lorazepam is given (40 min) and instead the effects of drugs were recorded 60 min post-KA on the EEG during the next hour.

[2] = tested on: 10 day old Sprague Dawley rat pups; assay: Neonatal SE model, intra-amygdala KA in P10 rat pups, EEG; assay type: in vivo; settings: 150 µmol/kg intraperitoneally, 40 min post-KA
Protocol: 10 day old Sprague Dawley rat pups were obtained from Harlan UK Limited (Blackthorn, UK). Rat pups were equipped with skull surface EEG and given intra-amygdala microinjection of kainic acid (2 µg) via an implanted guide cannula. P10 rat pups develop SE shortly after KA injection. Seizures in the model are propagated to the hippocampus and surface EEG recordings have previously shown a transition to low amplitude high frequency EEG, developing into high amplitude high frequency epileptiform EEG seizures. The pups display behaviour including initial masticatory movements and salivation, developing to periods of facial and forelimb myoclonus and progressing to the most commonly observed behaviour of wild running, loss of posture and swimming motions. The high amplitude high frequency spiking is sustained and corresponds to wild running and swimming behaviours during recordings 1-2 h after KA. By 4 hours, continuous seizures have abated but the EEG continues to display intermittent lower-amplitude high frequency spiking and high amplitude low frequency spikes even after 24 h. The pathological consequences of neonatal seizures in the model include hippocampal cell death and the animals later display unilateral hippocampal sclerosis.
as §1, with “time). […]” for “time).”

[3] = tested on: P2Y receptors; settings: selectivity of BBG; cited from earlier work
[4] = tested on: IL-1β; assay: Western blot of hippocampal IL-1β after SE; assay type: in vivo, mice; settings: ipsilateral hippocampus, 24 h after KA
Protocol: Adult male C57BL/6 mice (20-25 g) were obtained from Harlan UK (Blackthorn, UK). Mice were first anesthetized using isoflurane (3-5%) and maintained normothermic by means of a feedback-controlled heat blanket (Harvard Apparatus Ltd, Kent, UK). Mice were next placed in a stereotaxic frame and three partial craniectomies performed to affix cortical skull-mounted EEG electrodes (Bilaney Consultants Ltd, Sevenoaks, UK). EEG was recorded using a Grass Comet XL digital EEG (Medivent Ltd, Lucan, Ireland). A guide cannula was affixed (coordinates from Bregma: AP = 0.94; L = 2.85 mm) and the assembly fixed in place with dental cement. Anesthesia was then discontinued and freely moving mice were placed inside a clear perspex recording chamber. […]
Western blotting was performed as previously described (Engel et al., 2010). […] Protein concentration was determined and then 20 or 50 µg samples boiled in gel-loading buffer and separated by 10, 12 or 15% sodium dodecyl sulphate-polyacrylamide gel electrophoresis. […] Gel band image densities were captured using a Fuji-film LAS-3000 and analyzed using Alpha-EaseFC4.0 software as described (Engel et al., 2010).

Cl.Clc1cccc(-c2nnnn2Cc2cccnc2)c1Cl [A-438079, 3-[[5-(2,3-Dichlorophenyl)-1H-tetrazol-1-yl]methyl]pyridine hydrochloride]
total seizure time (duration of HAHFDs) ([1]; given 60 min after KA, 60 min recording, vs vehicle): not significantly different | seizure activity ([1]; given 60 min after KA, particularly within the first 15-30 min following injection): some suppression | mice continued in SE ([1]; given alone 60 min after KA, number of mice / group): 3/5 | seizures ([2]; P10 rat pups): strongly reduced | amplitude ([2]; vs vehicle (PBS)): less amplitude | total power ([2]; vs vehicle (PBS)): less total power

CCOc1ccc(Nc2ccc(C(=C3C=CC(=[N+](CC)Cc4cccc(S(=O)(=O)[O-])c4)C=C3C)c3ccc(N(CC)Cc4cccc(S(=O)(=O)O)c4)cc3C)cc2)cc1 [BBG, Brilliant Blue G]
inhibition of some P2Y receptors [3]: low micromolar range | IL-1β induction after SE [4]: significantly reduced
